In patent US7235588B2, “Method for reducing hypertension and heart failure” (The Research Foundation of State University of New York, priority 2001, dated 2007):
Entries after “also recorded” stand apart in the source; their conditions may differ.

How the values were obtained:
cardiomyocytes = test: Cardiomyocyte apoptosis by TUNEL after ischemia/reperfusion; set-up: species or system rat; details: FIG. 4C
Description: Immunohistochemical detection of apoptotic cells was carried out by use of terminal dUTP nick end-labeling (TUNEL), in which residues of digoxigenin-labeled dUTP are catalytically incorporated into the DNA by terminal deoxynucleotidyl transferase II. The cells were incubated with a sheep polyclonal anti-digoxigenin antibody followed by a FITC-conjugated rabbit anti-sheep IgG as a secondary antibody. The heart sections were washed in PBS 3 times, blocked with normal rabbit serum, and incubated with mouse monoclonal antibody recognizing cardiac myosin heavy chain (Biogenesis Ltd) followed by staining with TRIRC-conjugated rabbit anti-mouse IgG ([…] dilution, Dalco, Japan). The fluorescence staining was viewed with a confocal laser microscope (Olympus Co). The apoptoic cells were counted and expressed as percentage of total myocyte population. Ischemia was induced by a modified Langendorf-reperfusion method in rat hearts. Hearts from adult male rats were randomly divided into 4 groups and subjected to ischemia/reperfusion. In the ischemic group, hearts were perfused with Krebs-Henseleit buffer for 60 minutes, followed by 30 minutes of global ischemia. In the ischemic/reperfused group, hearts were perfused for 60 minutes, followed by 30 minutes of global ischemia and 120 minutes of reperfusion. Control group hearts were perfused for the same lengths of time.

angiotensinogen mRNA [1] = test: Angiotensinogen mRNA in hearts subjected to ischemia/reperfusion (primer extension assay); set-up: species or system rat; details: 30 min ischemia and 120 min reperfusion
Description: Ischemia was induced by a modified Langendorf-reperfusion method in rat hearts. Hearts from adult male rats were randomly divided into 4 groups and subjected to ischemia/reperfusion. In the ischemic group, hearts were perfused with Krebs-Henseleit buffer for 60 minutes, followed by 30 minutes of global ischemia. In the ischemic/reperfused group, hearts were perfused for 60 minutes, followed by 30 minutes of global ischemia and 120 minutes of reperfusion. Control group hearts were perfused for the same lengths of time.
Rat hearts subjected to ischemia/reperfusion were tested to determine whether activation of the renin-angiotensin system, as reflected by an increase in angiotensinogen mRNA, occurs in ischemic injury. The level of angiotensinogen mRNA was analyzed by primer extension assay using gene-specific DNA probes. A DNA primer spanning the complementary sequence of the rat angiotensinogen cDNA between nucleotides 302 and 279 (5′-[…]-3′) SEQ ID NO: 1 was end-labeled and used to evaluate the expression of angiotensinogen mRNA in total RNA isolated from the rat heart. The primer extension protocol was performed according to instructions provided by the supplier (Progema). Rat GAPDH cDNA specific primer was used as control. There was a marked increase in mRNA level after 30 minutes of ischemia and 120 minutes of reperfusion (FIG. 5A). […]

[2] = test system: St-domain/STAT binding activity; test: Electrophoretic gel mobility-shift assay of St-domain/STAT binding in heart nuclear extracts; set-up: species or system rat; details: hearts, 30 min ischemia/120 min reperfusion
Description: Nuclear extracts were examined in hearts subjected to global ischemia to determine whether there is enhanced STAT binding activity to the St domain of the angiotensinogen promoter. The nuclear heart extracts were examined by the electrophoretic gel mobility-shift assay that exployed the use of the chemically synthesized oligonucleotide sequence of the St domain. The St-domain DNA probe for protein binding was a double-stranded oligonucleotide containing the sequence 5′-GGGTtcCTGGAAGGG-3′ SEQ. ID NO: 2, and complementary strand 5′-CCCTTCCAGgaACCC-3′ SEQ. ID NO: 3, respectively. These probes were end-labeled by polynucleotide kinase and [γ-^32P]ATP. Binding reaction mixture containing 0.5 ng of labeled DNA (1,000 cpm), 2 μg of poly(dI-C), and 1-12 μg of protein in buffer containing 20 mM Hepes, 3% glycerol, 1.5 mM MgCl2, 1 mM DTT, 2 mM EDTA and 50 mM KCl, pH 7.5 was allowed to incubate at 4° C. for 30 min. The reactions were analyzed by electrophoresis on 8% polyacrylanide gel in 0.375× TBE ([…] Tris borate, pH 8.7 and 1.0 mM EDTA). After electrophoresis, the gels were dried and subjected to autoradiography. […] (FIG. 5B). The activation of STATs and the consequent binding to the St-domain in the angiotensinogen promoter accounts for the increase in transcription of angiotensinogen mRNA. […]

angiotensinogen mRNA [3] = test: Angiotensinogen mRNA expression in vivo in rat liver (northern blot); details: daily treatment to achieve 5 μM systemically, 10 days
Description: Tyrphostin AG490 was administered to rats in vivo. A subcutaneous pump was surgically placed with a catheter extended intraperitoneally. Rats were daily treated with tyrphostin AG490 to achieve a 5 μM concentration systemically. After 10 days, the animals were euthanized using approved animal protocols and the liver collected to isolate RNA. The isolated RNA was used to perform a northern blot and the nitrocellulose membrane was probed with the rat angiotensinogen cDNA. Loading control was performed using GAPDH as probe.

[4] = test system: spontaneously hypertensive rats; test: Blood pressure in spontaneously hypertensive rats; assay type: in vivo, rat; details: 5 micromoles, FIG. 9
Description: Adult spontaneously hypertensive rats, which are genetically predisposed to hypertension, and normotensive rats were anesthetized with pentobarbital sodium (65 mg/kg ip) in preparation for surgery. […] Teflon arterial catheter (ID […]) was inserted into the left femoral artery. The catheter was tunneled under the skin and exited at the nape of the rat's neck and connected to a 26 G needle capped on a port and flushed with 1:3 heparin saline. The rats were housed individually after surgery, and allowed 48 hours to recover from the operation. Systolic and diastolic blood pressure were directly measured using the connection to the port placed in the rat's neck to a manual transducer.

[5] = test system: hearts subjected to ischemia/reperfusion; details: cited from earlier work

**Q.** Which “apoptotic cell death of cardiomyocytes” value (cardiomyocytes) does the source give for N#C/C(=C\c1ccc(O)c(O)c1)C(=O)NCc1ccccc1 [tyrphostin AG490] here?
**A.** The value was “marked lowering of apoptotic cell death; also recorded: reduction of apoptosis of cardiomyocytes”.

**Q.** What about the “angiotensinogen mRNA level” value (angiotensinogen mRNA [1]) of the same compound?
**A.** The value was “inhibited the stimulation of the angiotensinogen mRNA level; also recorded: inhibition of angiotensinogen mRNA”.

**Q.** And the “St-domain/STAT binding activity (STAT/DNA complex formation)” value [2]?
**A.** Its value is “total loss of STAT/DNA complex formation; also recorded: reduction of St-domain/STAT binding activity”.

**Q.** What about the “expression of angiotensinogen gene product mRNA” value (angiotensinogen mRNA [3]) of the same compound?
**A.** The value was “abolished the expression of angiotensinogen gene product mRNA; also recorded: attenuation of angiotensinogen mRNA expression”.

**Q.** And the blood pressure [4]?
**A.** The blood pressure was “effective in lowering blood pressure to normal levels; also recorded: attenuation of hypertension”.

**Q.** What about the “cardioprotection / myocardial damage due to ischemia” value [5] of the same compound?
**A.** The value was “afford cardioprotection”.
